Laboratory results taken from the supplement of paper PMC10307832.

What was measured:
Experiment in all cases: relative viability (nuclei count vs DMSO), 5 days (fraction); higher = more cells survive
[1] = test system: HCC-44
Method in brief: (§1)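 Relative viability divides the nuclei count in treated wells by that in vehicle wells. Lung cancer cell lines were seeded in 1536-well plates, dosed by pin tool the next day, and fixed and stained after 5 days in one step with final 0.05% Triton X-100, 1% formaldehyde and 1 ug/ml Hoechst. Dosing was a single drug or a fixed anchor-drug dose plus five library-drug doses (not always all listed) in √10 steps, and values are medians of duplicate plates imaged at 4×.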

[2] = test system: LCLC-97TM1
Method in brief: as §1

[3] = test system: NCI-H2085
Method in brief: as §1

[4] = test system: EPLC-272H
Method in brief: as §1

[5] = test system: NCI-H1666
Method in brief: as §1

[6] = test system: NCI-H647
Method in brief: as §1

[7] = test system: HCC-827
Method in brief: as §1

[8] = test system: COR-L 105
Method in brief: as §1

[9] = test system: NCI-H650
Method in brief: as §1

[10] = test system: NCI-H1437
Method in brief: as §1

[11] = test system: BEN
Method in brief: as §1

[12] = test system: NCI-H2087
Method in brief: as §1

[13] = test system: 201T
Method in brief: as §1

[14] = test system: LU99A
Method in brief: as §1

[15] = test system: LOU-NH91
Method in brief: as §1

[16] = test system: SW 1573
Method in brief: as §1

[17] = test system: H3255
Method in brief: as §1

[18] = test system: NCI-H1975
Method in brief: as §1

[19] = test system: PC-3 [JPC-3]
Method in brief: as §1

[20] = test system: EKVX
Method in brief: as §1

With `O=c1cc(N2CCOCC2)oc2c(-c3cccc4c3sc3ccccc34)cccc12` + CC(C)C[C@H](NC(=O)[C@H](Cc1ccccc1)NC(=O)c1cnccn1)B(O)O [Bortezomib] (partner 0.002 µM) the relative viability ([1]; first compound 0.01 µM) was 0.889, the relative viability ([1]; first compound 0.03162 µM) was 0.875 and the relative viability ([1]; first compound 0.1 µM) was 0.906. For the same molecule, the relative viability ([1]; first compound 0.3162 µM) was 0.881, the relative viability ([1]; first compound 1 µM) was 0.896 and the relative viability ([2]; first compound 0.01 µM) was 0.678. The relative viability ([2]; first compound 0.03162 µM) was 0.535, the relative viability ([2]; first compound 0.1 µM) was 0.473 and the relative viability ([2]; first compound 0.3162 µM) was 0.751. The relative viability ([2]; first compound 1 µM) was 0.406, the relative viability ([3]; first compound 0.01 µM) was 0.995 and the relative viability ([3]; first compound 0.03162 µM) was 1.01. It also gave a relative viability ([3]; first compound 0.1 µM) of 1.03, a relative viability ([3]; first compound 0.3162 µM) of 1.06 and a relative viability ([3]; first compound 1 µM) of 0.967. The relative viability ([4]; first compound 0.01 µM) was 0.903, the relative viability ([4]; first compound 0.03162 µM) was 0.916 and the relative viability ([4]; first compound 0.3162 µM) was 0.854. For the same molecule, the relative viability ([4]; first compound 1 µM) was 0.935, the relative viability ([5]; first compound 0.01 µM) was 0.678 and the relative viability ([5]; first compound 0.03162 µM) was 0.804. For the same molecule, the relative viability ([5]; first compound 0.1 µM) was 0.909, the relative viability ([5]; first compound 0.3162 µM) was 0.703 and the relative viability ([5]; first compound 1 µM) was 0.751. It also gave a relative viability ([6]; first compound 0.01 µM) of 1.01, a relative viability ([6]; first compound 0.03162 µM) of 1.1 and a relative viability ([6]; first compound 0.1 µM) of 0.98. For the same molecule, the relative viability ([6]; first compound 0.3162 µM) was 1.02, the relative viability ([6]; first compound 1 µM) was 0.924 and the relative viability ([7]; first compound 0.01 µM) was 1.02. The relative viability ([7]; first compound 0.03162 µM) was 0.976, the relative viability ([7]; first compound 0.1 µM) was 1.04 and the relative viability ([7]; first compound 0.3162 µM) was 1.06. It also gave a relative viability ([7]; first compound 1 µM) of 1.02, a relative viability ([8]; first compound 0.01 µM) of 0.793 and a relative viability ([8]; first compound 0.03162 µM) of 0.793. It also gave a relative viability ([8]; first compound 0.1 µM) of 0.769, a relative viability ([8]; first compound 0.3162 µM) of 0.895 and a relative viability ([8]; first compound 1 µM) of 0.807. It also gave a relative viability ([9]; first compound 0.01 µM) of 0.845, a relative viability ([9]; first compound 0.03162 µM) of 0.837 and a relative viability ([9]; first compound 0.3162 µM) of 1.12. The relative viability ([9]; first compound 1 µM) was 0.632, the relative viability ([10]; first compound 0.01 µM) was 0.493 and the relative viability ([10]; first compound 0.03162 µM) was 0.515. For the same molecule, the relative viability ([10]; first compound 0.1 µM) was 0.477, the relative viability ([10]; first compound 0.3162 µM) was 0.527 and the relative viability ([10]; first compound 1 µM) was 0.57. It also gave a relative viability ([11]; first compound 0.01 µM) of 0.867, a relative viability ([11]; first compound 0.03162 µM) of 0.949 and a relative viability ([11]; first compound 0.1 µM) of 0.673. For the same molecule, the relative viability ([11]; first compound 0.3162 µM) was 0.793, the relative viability ([11]; first compound 1 µM) was 0.712 and the relative viability ([12]; first compound 0.01 µM) was 0.777. For the same molecule, the relative viability ([12]; first compound 0.03162 µM) was 0.766, the relative viability ([12]; first compound 0.1 µM) was 0.855 and the relative viability ([12]; first compound 0.3162 µM) was 0.953. The relative viability ([12]; first compound 1 µM) was 1.06, the relative viability ([13]; first compound 0.01 µM) was 1.07 and the relative viability ([13]; first compound 0.03162 µM) was 1.09. For the same molecule, the relative viability ([13]; first compound 0.1 µM) was 0.957, the relative viability ([13]; first compound 0.3162 µM) was 1.08 and the relative viability ([13]; first compound 1 µM) was 1.1. It also gave a relative viability ([14]; first compound 0.01 µM) of 1.25, a relative viability ([14]; first compound 0.03162 µM) of 1.11 and a relative viability ([14]; first compound 0.1 µM) of 1.19. It also gave a relative viability ([14]; first compound 0.3162 µM) of 1.03, a relative viability ([14]; first compound 1 µM) of 1.29 and a relative viability ([15]; first compound 0.01 µM) of 0.448. The relative viability ([15]; first compound 0.03162 µM) was 0.487, the relative viability ([15]; first compound 0.1 µM) was 0.538 and the relative viability ([15]; first compound 0.3162 µM) was 0.548. It also gave a relative viability ([15]; first compound 1 µM) of 0.457, a relative viability ([16]; first compound 0.01 µM) of 1.32 and a relative viability ([16]; first compound 0.03162 µM) of 0.985. The relative viability ([16]; first compound 0.1 µM) was 1.07, the relative viability ([16]; first compound 0.3162 µM) was 1.12 and the relative viability ([16]; first compound 1 µM) was 0.952. The relative viability ([17]; first compound 0.01 µM) was 0.696, the relative viability ([17]; first compound 0.03162 µM) was 0.806 and the relative viability ([17]; first compound 0.1 µM) was 0.761. The relative viability ([17]; first compound 0.3162 µM) was 0.854, the relative viability ([17]; first compound 1 µM) was 0.604 and the relative viability ([18]; first compound 0.01 µM) was 0.384. For the same molecule, the relative viability ([18]; first compound 0.03162 µM) was 0.387, the relative viability ([18]; first compound 0.1 µM) was 0.479 and the relative viability ([18]; first compound 0.3162 µM) was 0.349. It also gave a relative viability ([18]; first compound 1 µM) of 0.372, a relative viability ([19]; first compound 0.01 µM) of 0.824 and a relative viability ([19]; first compound 0.03162 µM) of 0.744. For the same molecule, the relative viability ([19]; first compound 0.1 µM) was 0.745, the relative viability ([19]; first compound 0.3162 µM) was 0.749 and the relative viability ([19]; first compound 1 µM) was 0.862. For the same molecule, the relative viability ([20]; first compound 0.01 µM) was 1.03, the relative viability ([20]; first compound 0.03162 µM) was 1.09 and the relative viability ([20]; first compound 0.1 µM) was 1.02. It also gave a relative viability ([20]; first compound 0.3162 µM) of 1.11 and a relative viability ([20]; first compound 1 µM) of 1.05.
